Patent publication US4701456A, “Aminoalkoxybenzopyranones as antipsychotic and anxiolytic agents” (Warner-Lambert Company, priority 1985, dated 1987)
Read-outs that look alike come from different tables or passages of the source.

Tests used:
[1] = test system: mature male hooded rats (Long-Evans strain); assay: animal model of anxiety based on the Geller-Seifter conflict test; type: in vivo; conditions: for Total Punished Responses, Test: four rats
From the text: The compounds of the present invention are new chemical substances which are also useful as pharmaceutical agents for the treatment of anxiety, i.e., anxiolytic agents. The antianxiety activity of a representative compound showing such activity for the compounds of the Formula I of the present invention is established by the use of an animal model of anxiety based on the Geller-Seifter conflict test described in Psychopharmacologia 1:482 (1960). Particularly the test follows initial shaping of response, an experimental conflict is induced, with animals trained until stable performance is established. Each animal serves as his own control. A description of the test is as follows:
Subjects: Mature male hooded rats (Long-Evans strain) 300-350 g body weight.
Apparatus: The experimental chamber consists of an inner test compartment with a lever mounted in one wall, a grid floor, an automatic feeding device, and a speaker. This chamber is enclosed by a sound insulated cubicle. Shock is provided by a LVE Model 1531 Constant Current SHocker. White (masking) noise is supplied by a LVE Model 1524 Noise Generator. A tone is produced by a LVE Model 1664 4.5 KC Tone Generator. All events and recordings are automatic and are programmed with appropriate electric timers and relay devices.
Procedure: Variable interval (VI)=two-minute; trial periods=four; shock=0.6 to 0.8 ma; food reward=Borden's Sweetened Condensed Milk diluted two parts water to one part milk; animals are deprived to 70% of their free feeding weight and are 23 hours starved; session length=one hour and 12 minutes.
The conflict is induced in the following manner: hungry rats are conditioned to press a lever to obtain a food reward. Reinforcement is contingent upon a lever press and occurs at variable intervals on the average of once every two minutes--VI two-minute (See Ferster; C. B., and Skinner, B. F., "In Schedules of Reinforcement, " Appleton-Century-Crofts,New York, 1957).
Spaced at regular intervals throughout the experimental session are four three-minute periods. During these trial periods a tone signals that every lever press will be food reinforced (CRF) and simultaneously punished by a painful electric foot shock.
In other words, food-deprived rats are trained to depress a lever in order to obtain food (sweetened condensed milk). Normally, the rats perform on a variable interval (VI) schedule on which a lever press results in food delivery on the average of once every two minutes; the time between successive periods of food availability is varied continuously such that animals respond at low but steady rates to obtain occasional access to food. After animals perform for 12 minutes on this schedule the house lights are extinguished and two small stimulus lights are illuminated, signaling the availability of food for each depression of the lever during a three minute trial period. During the trial, each depression of the lever also results in the delivery of mild electric shock (0.8 ma, 0.25 second duration) delivered through the grid floor (punishment). Thus, an approach-avoidance conflict is established with associated anxiety: food is readily available for each response, but each respone is punished (see Miller, N. E., "Some Recent Studies of Conflict Behavior and Drugs," Am. Pharmacologist, 16: 12, 1961). The scheduled used in our test employed four successive trials, each preceded by a 12-minute period during which the food-reinforced VI was in effect.
During sessions in which no drug is administered, rats normally respond at steady rates on the VI component but emit very few responses during the punished trial period.
The total number of punished responses made by the four subjects in the pretest and test sessions for the noted compound are as follows.
The pretest responses are cummulative responses emitted during the three minute tests from a previous nondrug session. […]

[2] = test system: Swiss-Webster male mice; assay: Mouse Activity and Screen Test Procedure (MAST); type: in vivo; conditions: ip, 1 h, intraperitoneal, one hour prior to testing, active = rating A at 100 mg/kg or less, read-out: Dose at which an overall dose rating of A was obtained
From the text: The compounds of the present invention are new chemical substances which are useful as pharmaceutical agents for the treatment of psychoses such as, for example, schizophrenia. The antipsychotic activity of representative compounds of the invention was established by the Mouse Activity and Screen Test Procedure (MAST) described below:
ANIMALS: Nine unfasted Swiss-Webster male mice (Buckberg Labs) weighing 20-30 g are equally divided into three groups for each drug dose to be tested. That is, data for each dose level was generated by three separate groups of three mice each.
DRUGS: A minimum of three dose levels (10, 30, and 100 mg/kg) are tested for each drug. Treatments are administered intraperitoneally one hour prior to testing. All dosages are calculated as parent compound and given in volumes of […]. Compounds are dissolved or suspended in 0.2% Methocel. Control animals are injected with Methocel.
TESTING: A two-part testing procedure is started one hour postinjection. First, the screen test is performed (see Pharmac Biochem Behav 6, 351-353, 1977). Briefly, this test consists of placing mice on individual wire screens which are then rotated 180° at the start of a 60-second observation period. The number of mice falling off the inverted screen is recorded.
Immediately following the screen test, the final phase of testing is initiated by placing each group of three mice in one actophotometer (Life Sciences, 22, 1067-1076, 1978). The actophotometer consists of a cylindrical chamber whose center is occupied by another cylinder which contains the illumination for six photocells located on the perimeter of the chamber. Six light-beam interruptions equal one count. Locomotor activity is recorded by computer at ten-minute intervals for 60 minutes.
DATA: The data obtained from the screen test are expressed as percent of mice falling off the screen. Data derived from locomotor activity of drug-treated mice are compared to the activity of vehicle-treated animals and are expressed as percent inhibition of spontaneous locomotion. All percentages reported for inhibition of locomotion are based upon data accumulated for one hour. Both phases of testing are graded: A=60-100%; C=31-59%; and N=0-30%. An overall dose rating is obtained by the following criteria. […]
______________________________________
Inhibition of Screen Test Dose
Locomotion rating with Failure Rating
Utilizing this procedure, an overall dose rating of A was obtained for the noted compounds at the indicated dose as reported in Table 1.

[3] = biological target: dopamine receptors (Rattus norvegicus, UniProt P61169); assay: [3H] haloperidol binding assay (HRBA); set-up: species or system Long-Evans hooded rats; conditions: displacement of [3H] haloperidol (0.6 nM), rat striatal membranes, pH 7.6, 25° C., 40 minutes
Chain of dopamine receptors (P61169 whole entry): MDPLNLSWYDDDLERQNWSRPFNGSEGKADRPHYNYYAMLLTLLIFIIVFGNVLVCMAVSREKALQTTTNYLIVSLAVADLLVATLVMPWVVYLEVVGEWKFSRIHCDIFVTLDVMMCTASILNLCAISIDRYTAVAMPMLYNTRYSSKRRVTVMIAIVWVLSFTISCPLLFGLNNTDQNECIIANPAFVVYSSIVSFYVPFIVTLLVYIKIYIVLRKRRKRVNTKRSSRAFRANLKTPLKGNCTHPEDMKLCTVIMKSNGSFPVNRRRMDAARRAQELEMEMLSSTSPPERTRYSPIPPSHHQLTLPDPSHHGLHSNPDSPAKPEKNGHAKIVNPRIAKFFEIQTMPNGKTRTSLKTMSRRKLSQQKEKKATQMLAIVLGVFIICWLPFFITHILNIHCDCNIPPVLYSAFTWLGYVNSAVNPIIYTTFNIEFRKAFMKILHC
Protocol: [^3 H] Haloperidol Binding Assay. The relative affinities of compounds for dopamine receptors were evaluated on the basis of their ability to displace [^3 H] haloperidol from striatal membranes prepared from Long-Evans hooded rats. Rats were decapitated; the brains were removed, and the corpus striata were dissected. The corpus striata were homogenized in 40 volumes of […] Tris buffer (pH 7.6) and centrifuged. Pellets were rehomogenized in 50 volumes of the same buffer and used for the binding assay. Incubations were carried out in 10 ml of […] Tris-HCl buffer (pH 7.6) containing 2 mg/ml of original wet tissue weight of homogenate, 100 μl of test agent or solvent, and 0.6 nM of [^3 H] haloperidol. Nonspecific binding was determined in the presence of 0.1 μM (+)-butaclamol. Samples were incubated in reciprocating water bath at 25° C. for 40 minutes. Incubation was terminated by rapid filtration under reduced pressure through glass fiber filters (Whatman GF/B). The filters were rinsed three times with 10 ml of Tris-HCl buffer. The filters were placed in 10 ml of scintillation coctail (Beckman Ready-Solv HP) and shaken for one hour. Radioactivity retained on the filter was determined by liquid scintillation spectrophotometry. Compounds were initially evaluated at 10 nM. IC50 s when determined were calculated from a nonlinear computer curve, fit on the data from four or more concentrations, each done in triplicate.

In the case of `O=c1ccc2ccc(OCCCN3CCN(c4ncccn4)CC3)cc2o1` [7-[3-[4-(2-pyrimidinyl)-1-piperazinyl]propoxy]-2H-1-benzopyran-2-one], the “responding during trial periods” value ([1]; 27.5 mg/kg PO (no increase)) is reported as “not at 27.5 mg/kg PO”, the “Total Punished Responses, Test” value ([1]; 27.5 mg/kg PO, Pretest (nondrug session) 39) is reported as 44 and the “Total Punished Responses, Test” value ([1]; 55 mg/kg PO, Pretest (nondrug session) 78) is reported as 147. The “rats with increases in punished responding” value ([1]; 80 mg/kg) was “four of four rats”, the “Total Punished Responses, Test” value ([1]; 80 mg/kg PO, Pretest (nondrug session) 23) was 77 and the “rats with increases in punished responding” value [1]; 55 was “three of four rats”. The gross sedation ([1]; 55 and 80 mg/kg PO) was “notable absence of gross sedation”, the “responding during trial periods” value ([1]; 55 and 80 mg/kg PO) was “increased responding during trial periods” and the “responding during the VI component” value ([1]; 55 and 80 mg/kg PO, unpunished responding) was “not accompanied by decreased responding during the VI component”.

Compound `CSc1ccc2c(c1)N(CCC1CCCCN1C)c1ccccc1S2` (stereo not drawn) [Thioridazine, reference compound] has a minimal effective dose [2] of 10 mg/kg.

`O=c1ccc2ccc(OCCCN3CCN(c4ccccc4)CC3)cc2o1` [drawing 15] gave a minimal effective dose [2] of 3 mg/kg.

For `Cc1cc(=O)oc2cc(OCCCN3CCN(c4ccccc4)CC3)ccc12` [drawing 16], the minimal effective dose [2] was 1 mg/kg.

In the case of `O=c1ccc2ccc(OCCCN3CCN(c4ncccn4)CC3)cc2o1` [drawing 17], the minimal effective dose [2] is reported as 3 mg/kg.

For `O=c1ccc2ccc(OCCCN3CC=C(c4ccccc4)CC3)cc2o1` [drawing 18], the minimal effective dose [2] was 1 mg/kg.

In the case of `O=c1ccc2ccc(OCCCN3CCN(c4ccccc4)CC3)cc2o1` [drawing 20], the IC50 ([3]; read-out: IC50) is reported as 0.015 µM.

`Cc1cc(=O)oc2cc(OCCCN3CCN(c4ccccc4)CC3)ccc12` [drawing 21] was tested, and the IC50 [3] was 0.05 µM.

Work on `O=c1ccc2ccc(OCCCN3CCN(c4ncccn4)CC3)cc2o1` [drawing 22] yielded an IC50 ([3]; read-out: IC50) of 0.93 µM.

Work on `O=c1ccc2ccc(OCCCN3CC=C(c4ccccc4)CC3)cc2o1` [drawing 23] yielded an IC50 [3] of 0.016 µM.
